# Legend:
# Assay type in all cases: functional, cell-based
# [1] = tested on: HCT-116; experiment: Antiproliferative activity against human HCT-116 cells measured after 48 hrs by SRB assay
# [2] = tested on: OVCAR-8; experiment: Antiproliferative activity against human OVCAR-8 cells measured after 48 hrs by SRB assay
# [3] = tested on: SK-MEL-5; experiment: Antiproliferative activity against human SK-MEL-5 cells measured after 48 hrs by SRB assay
# [4] = tested on: A498; experiment: Antiproliferative activity against human A498 cells measured after 48 hrs by SRB assay
# [5] = tested on: BT-549; experiment: Antiproliferative activity against human BT-549 cells measured after 48 hrs by SRB assay
# [6] = tested on: NCI-H226; experiment: Antiproliferative activity against human NCI-H226 cells measured after 48 hrs by SRB assay
# [7] = tested on: K562; experiment: Antiproliferative activity against human K562 cells measured after 48 hrs by SRB assay
# [8] = tested on: U-251; experiment: Antiproliferative activity against human U-251 cells measured after 48 hrs by SRB assay
# [9] = tested on: RPMI-8226; experiment: Antiproliferative activity against human RPMI-8226 cells measured after 48 hrs by SRB assay
# [10] = tested on: HOP-92; experiment: Antiproliferative activity against human HOP-92 cells measured after 48 hrs by SRB assay
# [11] = tested on: SK-OV-3; experiment: Antiproliferative activity against human SK-OV-3 cells measured after 48 hrs by SRB assay
# [12] = tested on: SF-295; experiment: Antiproliferative activity against human SF-295 cells measured after 48 hrs by SRB assay
# [13] = tested on: SN12C; experiment: Antiproliferative activity against human SN12C cells measured after 48 hrs by SRB assay
# [14] = tested on: T47D; experiment: Antiproliferative activity against human T47D cells measured after 48 hrs by SRB assay
# [15] = tested on: UACC-62; experiment: Antiproliferative activity against human UACC-62 cells measured after 48 hrs by SRB assay
# [16] = tested on: SW-620; experiment: Antiproliferative activity against human SW-620 cells measured after 48 hrs by SRB assay
# [17] = tested on: COLO 205; experiment: Antiproliferative activity against human COLO 205 cells measured after 48 hrs by SRB assay
# [18] = tested on: WI-38; experiment: Antiproliferative activity against human WI-38 cells measured by MTT assay
# [19] = tested on: SK-MEL-2; experiment: Antiproliferative activity against human SK-MEL-2 cells measured after 48 hrs by SRB assay
# [20] = tested on: DU-145; experiment: Antiproliferative activity against human DU-145 cells measured after 48 hrs by SRB assay
# [21] = tested on: HT-29; experiment: Antiproliferative activity against human HT-29 cells measured after 48 hrs by SRB assay
# [22] = tested on: HCT-15; experiment: Antiproliferative activity against human HCT-15 cells measured after 48 hrs by SRB assay
# [23] = tested on: MOLT-4; experiment: Antiproliferative activity against human MOLT-4 cells measured after 48 hrs by SRB assay
# [24] = tested on: HL-60(TB); experiment: Antiproliferative activity against human HL-60(TB) cells measured after 48 hrs by SRB assay
# [25] = tested on: SK-MEL-28; experiment: Antiproliferative activity against human SK-MEL-28 cells measured after 48 hrs by SRB assay
# [26] = tested on: SF-268; experiment: Antiproliferative activity against human SF-268 cells measured after 48 hrs by SRB assay
# [27] = tested on: NCI-H23; experiment: Antiproliferative activity against human NCI-H23 cells measured after 48 hrs by SRB assay
# [28] = tested on: NCI-H460; experiment: Antiproliferative activity against human NCI-H460 cells measured after 48 hrs by SRB assay
# [29] = tested on: OVCAR-5; experiment: Antiproliferative activity against human OVCAR-5 cells measured after 48 hrs by SRB assay
# [30] = tested on: HOP-62; experiment: Antiproliferative activity against human HOP-62 cells measured after 48 hrs by SRB assay
# [31] = tested on: SNB-19; experiment: Antiproliferative activity against human SNB-19 cells measured after 48 hrs by SRB assay
# [32] = tested on: OVCAR-4; experiment: Antiproliferative activity against human OVCAR-4 cells measured after 48 hrs by SRB assay
# [33] = tested on: ACHN; experiment: Antiproliferative activity against human ACHN cells measured after 48 hrs by SRB assay
# [34] = tested on: UO-31; experiment: Antiproliferative activity against human UO-31 cells measured after 48 hrs by SRB assay
# [35] = tested on: NCI-H522; experiment: Antiproliferative activity against human NCI-H522 cells measured after 48 hrs by SRB assay
# [36] = tested on: A549; experiment: Antiproliferative activity against human A549 cells measured after 48 hrs by SRB assay
compound,measurement,setting,value
O=C1c2ccccc2-c2n[nH]c3cccc1c23,IC50,"[1]; HCT-116, 48 h",44.6 µM
same,TGI,"[1]; HCT-116, time 48 hrs",> 100 µM
same,IC50,"[2]; OVCAR-8, 48 h",22 µM
same,TGI,"[2]; OVCAR-8, time 48 hrs",> 100 µM
same,IC50,"[3]; SK-MEL-5, 48 h",14.6 µM
same,TGI,"[3]; SK-MEL-5, time 48 hrs",37.5 µM
same,IC50,"[4]; A498, 48 h",7.03 µM
same,TGI,"[4]; A498, time 48 hrs",35.4 µM
same,IC50,"[5]; BT-549, 48 h",30.8 µM
same,TGI,"[5]; BT-549, time 48 hrs",> 100 µM
same,IC50,"[6]; NCI-H226, 48 h",22.9 µM
same,TGI,"[6]; NCI-H226, time 48 hrs",> 100 µM
same,IC50,"[7]; K562, 48 h",48.6 µM
same,TGI,"[7]; K562, time 48 hrs",> 100 µM
same,IC50,"[8]; U-251, 48 h",23.1 µM
same,TGI,"[8]; U-251, time 48 hrs",> 100 µM
same,IC50,"[9]; RPMI-8226, 48 h",18.8 µM
same,TGI,"[9]; RPMI-8226, time 48 hrs",> 100 µM
same,IC50,"[10]; HOP-92, 48 h",37.6 µM
same,TGI,"[10]; HOP-92, time 48 hrs",> 100 µM
same,IC50,"[11]; SK-OV-3, 48 h",21 µM
same,TGI,"[11]; SK-OV-3, time 48 hrs",> 100 µM
same,IC50,"[12]; SF-295, 48 h",22.5 µM
same,TGI,"[12]; SF-295, time 48 hrs",86.3 µM
same,IC50,[13]; 48 h,14.8 µM
same,TGI,[13]; time 48 hrs,> 100 µM
same,IC50,[14]; 48 h,> 100 µM
same,TGI,[14]; time 48 hrs,> 100 µM
same,IC50,"[15]; UACC-62, 48 h",14.6 µM
same,TGI,"[15]; UACC-62, time 48 hrs",86.5 µM
same,IC50,"[16]; SW-620, 48 h",10.9 µM
same,TGI,"[16]; SW-620, time 48 hrs",> 100 µM
same,IC50,"[17]; COLO 205, 48 h",19.5 µM
same,TGI,"[17]; COLO 205, time 48 hrs",> 100 µM
same,IC50,[18],> 20 µM
same,IC50,"[19]; SK-MEL-2, 48 h",29 µM
same,TGI,"[19]; SK-MEL-2, time 48 hrs",> 100 µM
same,IC50,"[20]; DU-145, 48 h",28.2 µM
same,TGI,"[20]; DU-145, time 48 hrs",> 100 µM
same,IC50,"[21]; HT-29, 48 h",25.9 µM
same,TGI,"[21]; HT-29, time 48 hrs",> 100 µM
same,IC50,"[22]; HCT-15, 48 h",8.04 µM
same,TGI,"[22]; HCT-15, time 48 hrs",> 100 µM
same,IC50,"[23]; MOLT-4, 48 h",20.4 µM
same,TGI,"[23]; MOLT-4, time 48 hrs",> 100 µM
same,IC50,"[24]; HL-60, 48 h",42.1 µM
same,TGI,"[24]; HL-60, time 48 hrs",> 100 µM
same,IC50,"[25]; SK-MEL-28, 48 h",37.5 µM
same,TGI,"[25]; SK-MEL-28, time 48 hrs",> 100 µM
same,IC50,"[26]; SF-268, 48 h",18.4 µM
same,TGI,"[26]; SF-268, time 48 hrs",> 100 µM
same,IC50,"[27]; NCI-H23, 48 h",23.8 µM
same,TGI,"[27]; NCI-H23, time 48 hrs",58.1 µM
same,IC50,"[28]; NCI-H460, 48 h",9.86 µM
same,TGI,"[28]; NCI-H460, time 48 hrs",> 100 µM
same,IC50,"[29]; OVCAR-5, 48 h",24.4 µM
same,TGI,"[29]; OVCAR-5, time 48 hrs",85.5 µM
same,IC50,"[30]; HOP-62, 48 h",69.3 µM
same,TGI,"[30]; HOP-62, time 48 hrs",> 100 µM
same,IC50,"[31]; SNB-19, 48 h",50 µM
same,TGI,"[31]; SNB-19, time 48 hrs",> 100 µM
same,IC50,"[32]; OVCAR-4, 48 h",31.9 µM
same,TGI,"[32]; OVCAR-4, time 48 hrs",> 100 µM
same,IC50,[33]; 48 h,6.64 µM
same,TGI,[33]; time 48 hrs,> 100 µM
same,IC50,"[34]; UO-31, 48 h",10.5 µM
same,TGI,"[34]; UO-31, time 48 hrs",> 100 µM
same,IC50,"[35]; NCI-H522, 48 h",12.2 µM
same,TGI,"[35]; NCI-H522, time 48 hrs",50.4 µM
same,IC50,"[36]; A549, 48 h",14.9 µM
same,TGI,"[36]; A549, time 48 hrs",> 100 µM
